Tests used:
[1] = biological target: T1, Polyunsaturated fatty acid 5-lipoxygenase (Rattus norvegicus, UniProt P12527); experiment: Inhibitory activity against rat basophilic leukemia cell 5-lipoxygenase (5-LO)
T1 sequence (P12527 whole entry): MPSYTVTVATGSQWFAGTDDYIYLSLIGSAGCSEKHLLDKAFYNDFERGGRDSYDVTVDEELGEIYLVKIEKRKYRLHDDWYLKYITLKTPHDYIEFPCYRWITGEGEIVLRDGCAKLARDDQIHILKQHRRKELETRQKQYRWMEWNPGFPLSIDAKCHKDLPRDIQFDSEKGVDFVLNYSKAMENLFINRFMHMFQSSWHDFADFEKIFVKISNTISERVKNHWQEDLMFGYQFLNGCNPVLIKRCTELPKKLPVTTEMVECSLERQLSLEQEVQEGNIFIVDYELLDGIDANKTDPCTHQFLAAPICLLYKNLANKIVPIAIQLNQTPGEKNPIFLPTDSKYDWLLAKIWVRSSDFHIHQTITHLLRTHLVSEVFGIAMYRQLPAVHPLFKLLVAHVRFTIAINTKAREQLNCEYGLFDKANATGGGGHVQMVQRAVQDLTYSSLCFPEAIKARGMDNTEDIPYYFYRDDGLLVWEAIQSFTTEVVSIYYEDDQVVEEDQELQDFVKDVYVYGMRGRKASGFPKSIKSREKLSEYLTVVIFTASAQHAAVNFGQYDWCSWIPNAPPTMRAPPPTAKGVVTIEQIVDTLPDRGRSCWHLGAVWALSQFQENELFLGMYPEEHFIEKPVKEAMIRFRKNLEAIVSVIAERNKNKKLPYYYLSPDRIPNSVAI

[2] = biological target: T2, Polyunsaturated fatty acid lipoxygenase ALOX12 (Homo sapiens, UniProt P18054); experiment: Inhibitory activity against human platelet 12-lipoxygenase
T2 sequence (P18054 whole entry): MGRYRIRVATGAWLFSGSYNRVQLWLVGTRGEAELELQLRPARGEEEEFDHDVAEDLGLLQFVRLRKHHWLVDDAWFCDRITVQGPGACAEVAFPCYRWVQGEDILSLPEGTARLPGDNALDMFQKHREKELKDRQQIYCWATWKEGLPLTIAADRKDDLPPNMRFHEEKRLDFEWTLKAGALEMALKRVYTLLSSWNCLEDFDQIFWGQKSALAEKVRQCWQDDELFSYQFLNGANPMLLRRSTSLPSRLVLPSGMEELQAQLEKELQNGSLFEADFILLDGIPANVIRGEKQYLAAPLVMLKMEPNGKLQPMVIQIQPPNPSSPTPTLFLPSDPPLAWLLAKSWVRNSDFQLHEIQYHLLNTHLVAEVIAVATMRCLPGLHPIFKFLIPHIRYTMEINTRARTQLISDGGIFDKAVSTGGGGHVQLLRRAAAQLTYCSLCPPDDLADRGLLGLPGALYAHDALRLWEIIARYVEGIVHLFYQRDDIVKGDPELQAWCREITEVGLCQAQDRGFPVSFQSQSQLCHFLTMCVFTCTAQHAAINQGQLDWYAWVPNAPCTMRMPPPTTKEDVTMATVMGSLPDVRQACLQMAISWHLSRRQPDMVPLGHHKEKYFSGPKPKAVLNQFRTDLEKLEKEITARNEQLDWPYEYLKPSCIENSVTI

In the case of `O=C(Nc1ccc(CCc2ccc(O)c(O)c2)cc1)c1ccccc1O`, the IC50 [1] is reported as 280 nM and the IC50 [2] is reported as 5000 nM.
